Test results from US20230013669A1, “Antibacterial Treatment Using a Cannabinoid and an Active Agent” (priority 2019, published 2023).
“And” between values parts separate entries of the source, which are not always exact repeats. Equal entries are not always repeated. Where two headings read alike, the source gives them in different places.

System: Klebsiella pneumoniae ATCC 13883 (GN_003 / GN_004)
Assay: Synergy of cannabidiol with cell-wall disrupting agent (CBD MIC in combination, FICI)
Format: cell-based
Settings: for FICI: calculated using MIC of 256 μg/mL for cannabidiol; for MIC: Klebsiella pneumoniae
Procedure: The compounds were stored short term at 4° C.
Analysis was performed using Microsoft Excel.

C=C(C)C1CCC(C)=CC1c1c(O)cc(CCCCC)cc1O (centres unmarked) [Cannabidiol, 2-[3-methyl-6-(1-methylethenyl)-2-cyclohexen-1-yl]-5-pentyl-1,3-benzenediol]
CBD MIC with Colistin (Colistin at 1 μg/mL, Klebsiella pneumoniae ATCC 700603): 0.001 µg/mL
activity of cannabidiol combined with octapeptin MCC_006442 (Example 4): effective
activity of cannabidiol in combination with octapeptin MCC_006442 (Example 7): effective
activity of cannabidiol combined with cefuroxime (Example 12): effective
activity of cannabidiol combined with colistin (Example 14): effective
activity of cannabidiol combined with octapeptin MCC_006442 (Example 15): effective
activity of cannabidiol combined with ceftazidime (Example 16): effective
activity of cannabidiol combined with cefotetan (Example 17): effective
activity of cannabidiol combined with aztreonam (Example 18): effective
activity of cannabidiol combined with octapeptin C4 (Example 21): effective
activity of cannabidiol in combination with Spero Potentiator SPR741 (Example 22): effective
activity of cannabidiol in combination with octapeptin FADDI-287 (Example 23): effective
activity of cannabidiol in combination with MCC_8980 (Example 24): effective
FICI range (Klebsiella pneumoniae ATCC 700603 (so in the source), CBD with FADDI-287, MIC table (Table 95)): 0.16-4
FICI range (Klebsiella pneumoniae ATCC 700603 (so in the source), CBD with FADDI-287, Synergy table (Table 97)): 0.16-0.5
FICI range (Klebsiella pneumoniae ATCC 700603 (so in the source), CBD with MCC_8980, MIC table (Table 99), listed as CBD): 0.31-1.13 and 0.38-1.13
FICI range (Klebsiella pneumoniae ATCC 700603 (so in the source), CBD with MCC_8980, Synergy table (Table 101), listed as CBD): 0.31 and 0.38
FICI range (Klebsiella pneumoniae ATCC 700603 (so in the source), CBD with Spero Potentiator SPR741, MIC table (Table 91), listed as CBD): 0.08-1.03 and 0.09-1.03 and 0.16-1.06 and 0.14-1.06
FICI range (Klebsiella pneumoniae ATCC 700603 (so in the source), CBD with Spero Potentiator SPR741, Synergy table (Table 93), listed as CBD): 0.08-0.27 and 0.09-0.27 and 0.16-0.27 and 0.14-0.26
CBD MIC with MCC_8980 (Klebsiella pneumoniae ATCC 700603 (so in the source), MCC_8980 at 16 μg/mL, listed as CBD): 32 µg/mL
CBD MIC with Spero Potentiator SPR741 (Klebsiella pneumoniae ATCC 700603 (so in the source), SPR741 at 8 μg/mL, listed as CBD): 4 µg/mL and 8 µg/mL
FICI (Klebsiella pneumoniae ATCC 700603 (so in the source), cannabidiol with FADDI-287 at 0.25 μg/mL): 0.2539
FICI (Klebsiella pneumoniae ATCC 700603 (so in the source), cannabidiol with FADDI-287 at 0.5 μg/mL): 0.5
FICI (Klebsiella pneumoniae ATCC 700603 (so in the source), cannabidiol with FADDI-287 at 1 μg/mL): 1
FICI (Klebsiella pneumoniae ATCC 700603 (so in the source), cannabidiol with FADDI-287 at 2 μg/mL): 2
FICI (Klebsiella pneumoniae ATCC 700603 (so in the source), cannabidiol with FADDI-287 at 4 μg/mL): 4
FICI (Klebsiella pneumoniae ATCC 700603 (so in the source), cannabidiol with MCC_8980 at 1 μg/mL): 1.016
FICI (Klebsiella pneumoniae ATCC 700603 (so in the source), cannabidiol with MCC_8980 at 2 μg/mL): 1.031
FICI (Klebsiella pneumoniae ATCC 700603 (so in the source), cannabidiol with MCC_8980 at 4 μg/mL): 1.0625
FICI (Klebsiella pneumoniae ATCC 700603 (so in the source), cannabidiol with MCC_8980 at 8 μg/mL): 1.125
FICI (Klebsiella pneumoniae ATCC 700603 (so in the source), cannabidiol with MCC_8980 at 16 μg/mL): 0.375 and 0.3125
FICI (Klebsiella pneumoniae ATCC 700603 (so in the source), cannabidiol with SPR741 at 0.5 μg/mL): 1.004
FICI (Klebsiella pneumoniae ATCC 700603 (so in the source), cannabidiol with SPR741 at 1 μg/mL): 1.016
FICI (Klebsiella pneumoniae ATCC 700603 (so in the source), cannabidiol with SPR741 at 2 μg/mL): 1.031
FICI (Klebsiella pneumoniae ATCC 700603 (so in the source), cannabidiol with SPR741 at 2 μg/mL, listed as cannabidiol): 1.016
FICI (Klebsiella pneumoniae ATCC 700603 (so in the source), cannabidiol with SPR741 at 4 μg/mL): 1.031 and 1.0625
FICI (Klebsiella pneumoniae ATCC 700603 (so in the source), cannabidiol with SPR741 at 8 μg/mL): 0.09375 and 0.1406 and 0.07812
MIC (ATCC13883, read-out: CBD MIC with octapeptin MCC_006442 at concentration 2 μg/mL, Example 4, GN_003): 1 µg/mL
MIC (ATCC13883, read-out: CBD MIC with octapeptin MCC_006442 at concentration 4 μg/mL, Example 4, GN_003): 0.25 µg/mL
MIC (ATCC 13883 / ATCC 700603, Klebsiella pneumoniae ATCC 700603 (so in the source), FADDI-287 at 0.25 μg/mL, read-out: CBD MIC with FADDI-287): 1 µg/mL
MIC (ATCC 13883 / ATCC 700603, Klebsiella pneumoniae ATCC 700603 (so in the source), FADDI-287 at 0.5 μg/mL, read-out: CBD MIC with FADDI-287): 0.001 µg/mL
MIC (ATCC 13883 / ATCC 700603, Klebsiella pneumoniae ATCC 700603 (so in the source), FADDI-287 at 1 μg/mL, read-out: CBD MIC with FADDI-287): 0.001 µg/mL
MIC (ATCC 13883 / ATCC 700603, Klebsiella pneumoniae ATCC 700603 (so in the source), FADDI-287 at 2 μg/mL, read-out: CBD MIC with FADDI-287): 0.001 µg/mL
MIC (ATCC 13883 / ATCC 700603, Klebsiella pneumoniae ATCC 700603 (so in the source), FADDI-287 at 4 μg/mL, read-out: CBD MIC with FADDI-287): 0.001 µg/mL
MIC (ATCC 13883 / ATCC 700603, Klebsiella pneumoniae ATCC 700603 (so in the source), MCC_8980 at 16 μg/mL, read-out: CBD MIC with MCC_8980): 16 µg/mL
MIC (ATCC 13883 / ATCC 700603, Klebsiella pneumoniae ATCC 700603 (so in the source), Spero SPR206 at 0.007 μg/mL, read-out: CBD MIC with Spero SPR206): ≥ 32 µg/mL
MIC (ATCC 13883 / ATCC 700603, Klebsiella pneumoniae ATCC 700603 (so in the source), Spero SPR206 at 0.015 μg/mL, read-out: CBD MIC with Spero SPR206): ≥ 32 µg/mL
MIC (ATCC 13883 / ATCC 700603, Klebsiella pneumoniae ATCC 700603 (so in the source), Spero SPR206 at 0.031 μg/mL, read-out: CBD MIC with Spero SPR206): ≥ 32 µg/mL
MIC (ATCC 13883 / ATCC 700603, Klebsiella pneumoniae ATCC 700603 (so in the source), Spero SPR206 at 0.062 μg/mL, read-out: CBD MIC with Spero SPR206): ≥ 32 µg/mL
MIC (ATCC 13883 / ATCC 700603, Klebsiella pneumoniae ATCC 700603 (so in the source), Spero SPR206 at 4 μg/mL, read-out: CBD MIC with Spero SPR206): 0.001 µg/mL
MIC (ATCC 13883 / ATCC 700603, MCC_6442 at 2 μg/mL, Klebsiella pneumoniae ATCC 700603, read-out: CBD MIC with MCC_6442): 1 µg/mL
MIC (ATCC 13883 / ATCC 700603, MCC_6442 at 4 μg/mL, Klebsiella pneumoniae ATCC 700603, read-out: CBD MIC with MCC_6442): 0.25 µg/mL
MIC (ATCC13883 / ATCC700603, read-out: CBD MIC with FADDI-287, Klebsiella pneumoniae ATCC 700603 (so in the source), FADDI-287 at […]): 8 µg/mL
